The results in this text go back to PubChem BioAssay AID2060501 (Molecular Pharmacology Branch, DTP, NCI, 2025).

Each structure is given as a SMILES string.
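Further: spheroids exposed to compounds for 7 days before readout.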
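Wherever viability, T/C is given: percent of vehicle DMSO control viability with 100% = untreated-like growth.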

One assay concerns 282377-053-R-J1-PDC complex spheroids, viability. The experiment in a line: Anticancer human tumor 282377-053-R-J1-PDC patient-derived colon adenocarcinoma cell line growth inhibition [GQUAD]. Conditions: curve of first compound; second compound 10 µM. From the text:
DNA G-quadruplex Stabilizer Agents in Combinations in Complex Spheroids
A high-throughput screen of multi-cell type tumor spheroids was designed to identify active combinations of DNA G-quadruplex stabilizer agents and targeted small molecules. Complex spheroids include a stromal component modeled by human endothelial cells (HUVEC) and fibroblasts modeled by human mesenchymal stem cells (MSCs). The concentration ranges selected for each drug and investigational agent were based upon clinically achievable concentrations if the clinical Cmax of the agent was known.
Compounds. The drugs and investigational agents: pidnarulex (CX-5461; NSC782164), APTO-253 (NSC789042), BRACO-19 (NSC847499), peposertib (NSC802822), ceralasertib (NSC780249), elimusertib (NSC800525), camonsertib (NSC841442), AZD-1390 (NSC803789), olaparib (NSC753686), talazoparib (NSC767125), ART-558 (NSC835418), sotorasib (NSC818433), MRTX-1133 (NSC836407), SN-38 (NSC673596), topotecan (NSC609699), etoposide (NSC141540), doxorubicin (NSC123127), gemcitabine (NSC613327), 5-fluorouracil (NSC19893), paclitaxel (NSC125973), vemurafenib (NSC761431), panobinostat (NSC761190), R-306465 (JNJ-16241199; NSC773264), adavosertib (NSC754352), TP-3654 (NSC805149), carboplatin (NSC241240), KSQ-4279 (NSC840948), and staurosporine (NSC755774) were obtained from the National Cancer Institute (NCI) Developmental Therapeutics Program Chemical Repository (34). The FDA-approved anticancer drug set is available from the NCI Developmental Therapeutics Program. […] The stock solutions were prepared in dimethyl sulfoxide (DMSO, Sigma-Aldrich, St. Louis, MO, cat. D2650) at 800-fold the tested concentration and stored at -70 degrees C prior to their use. All drugs and investigational agents were tested over a range starting from a high concentration at or near the clinical Cmax and decreasing in half-log increments. If the clinical Cmax for an agent had not been determined, the highest concentration tested was 10 microM.
2.3 Cell Culture. All cells were maintained in an incubator at 37 degrees C and 5% CO2 with 95% humidity. The PDC lines were cultured according to standard operating procedures established by the NCI PDMR. All PDCs were thawed and cultured in Matrigel-coated flasks prepared with a working solution of 1X Ham's F-12 nutrient mix, without supplementation (Invitrogen, cat. 11765054), 100 U/mL penicillin-streptomycin (Invitrogen, cat. 15140122), and 2.5% Matrigel (Corning Inc., cat. 354248) for the first three passages. The 857933-349-R-J2-PDC line was cultured in 6C/Colon 1B media, which includes advanced DMEM/F-12 (Thermo Fisher Scientific, cat. 12634028), 10 mM HEPES (Thermo Fisher Scientific, cat. 15630080), 1X GlutaMAX supplement (Thermo Fisher Scientific, cat. 35050061), 0.1 mg/mL primocin (InvivoGen, cat. ant-pm-2), 10% defined fetal bovine serum, heat inactivated (HyClone Laboratories Inc., cat. SH30070.03HI), 50% L-WRN conditioned media (ATCC, cat. CRL-3276), 1.25 mM N-Acetyl-L-cysteine (Sigma-Aldrich, cat. A9165), 10 mM nicotinamide (Sigma-Aldrich, cat. N0636), 1X B-27 supplement (Thermo Fisher Scientific, cat. 17504044), 1X N-2 supplement (Thermo Fisher Scientific, cat. 17502048), 10 microM Y-27632 dihydrochloride (Tocris Bioscience, cat. 1254), and 50 ng/mL human EGF recombinant protein (Thermo Fisher Scientific, cat. PHG0311). The 485176-168-R4-J1-PDC line was cultured in Panc media, which includes all 6C/Colon 1B media components plus 100 ng/mL human FGF-10 (Thermo Fisher Scientific, cat. 100-26), 500 nM SB-431542 (Selleckchem, cat. S1067), and gastrin (Tocris, cat. 3006).
[…]
As a reminder, the IC50 is the point on the concentration scale where inhibition reaches its midpoint. On to `C#Cc1c(F)ccc2cc(O)cc(-c3ncc4c(N5CC6CCC(C5)N6)nc(OCC56CCCN5CC(F)C6)nc4c3F)c12` (stereo unspecified) + CN(C)c1ccc(Nc2c3ccc(NC(=O)CCN4CCCC4)cc3nc3cc(NC(=O)CCN4CCCC4)ccc23)cc1, for which the 50% inhibitory concentration (IC50) was above 10 µM.

`C=CC(=O)N1CCN(c2nc(=O)n(-c3c(C)ccnc3C(C)C)c3nc(-c4c(O)cccc4F)c(F)cc23)C(C)C1` (stereo unspecified) + CN(C)c1ccc(Nc2c3ccc(NC(=O)CCN4CCCC4)cc3nc3cc(NC(=O)CCN4CCCC4)ccc23)cc1: the IC50 was above 10 µM.

For `COc1cccc2c1C(=O)c1c(O)c3c(c(O)c1C2=O)CC(O)(C(=O)CO)CC3OC1CC(N)C(O)C(C)O1` (stereo unspecified) + CN(C)c1ccc(Nc2c3ccc(NC(=O)CCN4CCCC4)cc3nc3cc(NC(=O)CCN4CCCC4)ccc23)cc1, the IC50 came to 2.58 µM.

The assay is the same for the next values; noted with them: second compound 0.0316 µM; first compound 0.0316 µM; stronger effect = lower value.
The term viability, T/C denotes the ratio of treated to control. As to `C#Cc1c(F)ccc2cc(O)cc(-c3ncc4c(N5CC6CCC(C5)N6)nc(OCC56CCCN5CC(F)C6)nc4c3F)c12` (stereo unspecified) + CN(C)c1ccc(Nc2c3ccc(NC(=O)CCN4CCCC4)cc3nc3cc(NC(=O)CCN4CCCC4)ccc23)cc1, the viability, T/C is 98%.

With `C=CC(=O)N1CCN(c2nc(=O)n(-c3c(C)ccnc3C(C)C)c3nc(-c4c(O)cccc4F)c(F)cc23)C(C)C1` (stereo unspecified) + CN(C)c1ccc(Nc2c3ccc(NC(=O)CCN4CCCC4)cc3nc3cc(NC(=O)CCN4CCCC4)ccc23)cc1, the viability, T/C was 105%.

Take `COc1cccc2c1C(=O)c1c(O)c3c(c(O)c1C2=O)CC(O)(C(=O)CO)CC3OC1CC(N)C(O)C(C)O1` (stereo unspecified) + CN(C)c1ccc(Nc2c3ccc(NC(=O)CCN4CCCC4)cc3nc3cc(NC(=O)CCN4CCCC4)ccc23)cc1: the viability, T/C is 114%.

The same assay, now with this note: second compound 0.0316 µM; first compound 0.1 µM; stronger effect = lower value.
Turning to `C#Cc1c(F)ccc2cc(O)cc(-c3ncc4c(N5CC6CCC(C5)N6)nc(OCC56CCCN5CC(F)C6)nc4c3F)c12` (stereo unspecified) + CN(C)c1ccc(Nc2c3ccc(NC(=O)CCN4CCCC4)cc3nc3cc(NC(=O)CCN4CCCC4)ccc23)cc1, the viability, T/C was 108%.

As for `C=CC(=O)N1CCN(c2nc(=O)n(-c3c(C)ccnc3C(C)C)c3nc(-c4c(O)cccc4F)c(F)cc23)C(C)C1` (stereo unspecified) + CN(C)c1ccc(Nc2c3ccc(NC(=O)CCN4CCCC4)cc3nc3cc(NC(=O)CCN4CCCC4)ccc23)cc1, the viability, T/C is 104%.

As to `COc1cccc2c1C(=O)c1c(O)c3c(c(O)c1C2=O)CC(O)(C(=O)CO)CC3OC1CC(N)C(O)C(C)O1` (stereo unspecified) + CN(C)c1ccc(Nc2c3ccc(NC(=O)CCN4CCCC4)cc3nc3cc(NC(=O)CCN4CCCC4)ccc23)cc1, the viability, T/C is 99%.

The same assay, now with this note: second compound 0.0316 µM; first compound 0.316 µM; stronger effect = lower value.
On to `C#Cc1c(F)ccc2cc(O)cc(-c3ncc4c(N5CC6CCC(C5)N6)nc(OCC56CCCN5CC(F)C6)nc4c3F)c12` (stereo unspecified) + CN(C)c1ccc(Nc2c3ccc(NC(=O)CCN4CCCC4)cc3nc3cc(NC(=O)CCN4CCCC4)ccc23)cc1, for which the viability, T/C is 89.1%.

As to `C=CC(=O)N1CCN(c2nc(=O)n(-c3c(C)ccnc3C(C)C)c3nc(-c4c(O)cccc4F)c(F)cc23)C(C)C1` (stereo unspecified) + CN(C)c1ccc(Nc2c3ccc(NC(=O)CCN4CCCC4)cc3nc3cc(NC(=O)CCN4CCCC4)ccc23)cc1, the viability, T/C was 99.3%.

Turning to `COc1cccc2c1C(=O)c1c(O)c3c(c(O)c1C2=O)CC(O)(C(=O)CO)CC3OC1CC(N)C(O)C(C)O1` (stereo unspecified) + CN(C)c1ccc(Nc2c3ccc(NC(=O)CCN4CCCC4)cc3nc3cc(NC(=O)CCN4CCCC4)ccc23)cc1, the viability, T/C was 92.8%.

Still in this assay, the particulars now being: second compound 0.0316 µM; first compound 1 µM; stronger effect = lower value.
With `C#Cc1c(F)ccc2cc(O)cc(-c3ncc4c(N5CC6CCC(C5)N6)nc(OCC56CCCN5CC(F)C6)nc4c3F)c12` (stereo unspecified) + CN(C)c1ccc(Nc2c3ccc(NC(=O)CCN4CCCC4)cc3nc3cc(NC(=O)CCN4CCCC4)ccc23)cc1, the viability, T/C is 98.2%.

For `C=CC(=O)N1CCN(c2nc(=O)n(-c3c(C)ccnc3C(C)C)c3nc(-c4c(O)cccc4F)c(F)cc23)C(C)C1` (stereo unspecified) + CN(C)c1ccc(Nc2c3ccc(NC(=O)CCN4CCCC4)cc3nc3cc(NC(=O)CCN4CCCC4)ccc23)cc1, the viability, T/C was 99%.

Turning to `COc1cccc2c1C(=O)c1c(O)c3c(c(O)c1C2=O)CC(O)(C(=O)CO)CC3OC1CC(N)C(O)C(C)O1` (stereo unspecified) + CN(C)c1ccc(Nc2c3ccc(NC(=O)CCN4CCCC4)cc3nc3cc(NC(=O)CCN4CCCC4)ccc23)cc1, the viability, T/C is 62.6%.

The assay is the same for the next values; noted with them: second compound 0.0316 µM; first compound 3.16 µM; stronger effect = lower value.
As for `C#Cc1c(F)ccc2cc(O)cc(-c3ncc4c(N5CC6CCC(C5)N6)nc(OCC56CCCN5CC(F)C6)nc4c3F)c12` (stereo unspecified) + CN(C)c1ccc(Nc2c3ccc(NC(=O)CCN4CCCC4)cc3nc3cc(NC(=O)CCN4CCCC4)ccc23)cc1, the viability, T/C was 84.2%.
